ChEMBL document CHEMBL5357021, “Novel Triazolopyridine-Based BRD4 Inhibitors as Potent HIV-1 Latency Reversing Agents” (ACS Med Chem Lett, 2024)
The source made the active and inactive calls. No cut-off for these calls is given here.

Experiments:
[1] = system: Human immunodeficiency virus 1; experiment: Reversal of HIV-1 latency in CD4+ T-lymphoid J-Lat cells contains HIV-1 long terminal repeats (LTR)-Tat-GFP assessed as reactivation measured after 48 hrs by flow cytometry; format: functional, organism-based; conditions: Human immunodeficiency virus 1, J-Lat 10.6, 48 h
[2] = Cytotoxicity against human non-infected J-Lat A10.6 cells assessed as cell death by CCK8 assay; format: toxicity, cell-based, J-Lat 10.6
[3] = system: Human immunodeficiency virus 1; experiment: Reversal of HIV-1 latency in ACH-2 cell line contains complete HIV-1 provirus assessed as reactivation by measuring HIV-1 p24 antigen expression 5 uM measured after 48 hrs by ELISA; format: functional, organism-based
[4] = biological target: Bromodomain-containing protein 4 (Homo sapiens) (UniProt O60885); experiment: Inhibition of BRD4 BD1 domain (unknown origin) at 1 uM by HTRF assay
[5] = biological target: Bromodomain-containing protein 4 (Homo sapiens) (UniProt O60885); experiment: Inhibition of BRD4 BD2 domain (unknown origin) at 1 uM by HTRF assay
[6] = system: Human immunodeficiency virus 1; experiment: Anti-HIV activity against HIV-1IIIB acute infected in human C8166 cells assessed as inhibition of p24 expression at 50 nM incubated for 72 hrs by ELISA assay in presence of N-(4-(2,4-difluorophenoxy)-3-(3-methyl-[1,2,4]triazolo[4,3-a]pyridin-6-yl)phenyl)-4-fluorobenzenesulfonamide; format: functional, organism-based
[7] = system: C8166; experiment: Anti-HIV activity against HIV-1IIIB acute infected in human C8166 cells assessed as inhibition of p24 expression at 1 nM incubated for 72 hrs by ELISA assay in presence of N-(4-(2,4-difluorophenoxy)-3-(3-methyl-[1,2,4]triazolo[4,3-a]pyridin-6-yl)phenyl)-4-fluorobenzenesulfonamide; format: functional, cell-based
[8] = system: Human immunodeficiency virus 1; experiment: Anti-HIV activity against HIV-1IIIB acute infected in human C8166 cells assessed as inhibition of p24 expression at 25 nM incubated for 72 hrs by ELISA assay in presence of N-(4-(2,4-difluorophenoxy)-3-(3-methyl-[1,2,4]triazolo[4,3-a]pyridin-6-yl)phenyl)-4-fluorobenzenesulfonamide; format: functional, organism-based
[9] = biological target: Bromodomain-containing protein 4 (Homo sapiens) (UniProt O60885); experiment: Inhibition of BRD4 phosphorylation in human J-Lat A10.6 cells contains HIV-1 long terminal repeats (LTR)-Tat-GFP at 1 uM measured after 24 hrs by Western blotting analysis; format: cell-based; conditions: J-Lat 10.6
[10] = biological target: Bromodomain-containing protein 4 (Homo sapiens) (UniProt O60885); experiment: Inhibition of BRD4 in human J-Lat 10.6 cells contains HIV-1 long terminal repeats (LTR)-Tat-GFP assessed as increased CDK9 enrichment in LTR at 1 uM incubated for 6 hrs by ChiP assay; format: cell-based
[11] = biological target: Bromodomain-containing protein 4 (Homo sapiens) (UniProt O60885); experiment: Inhibition of BRD4 in human J-Lat 10.6 cells contains HIV-1 long terminal repeats (LTR)-Tat-GFP assessed as increased RNA pol II enrichment in LTR at 1 uM incubated for 6 hrs by ChiP assay; format: cell-based
[12] = system: PBMC; experiment: Immune hyper-activation in human PBMC cells assessed as CD25 expression at 1 uM measured after 48 hrs by flow cytometry; format: toxicity, cell-based
[13] = system: PBMC; experiment: Immune hyper-activation in human PBMC cells assessed as CD69 expression at 1 uM measured after 48 hrs by flow cytometry; format: toxicity, cell-based
[14] = system: PBMC; experiment: Immune hyper-activation in human PBMC cells assessed as HLA-DR expression at 1 uM measured after 48 hrs by flow cytometry; format: toxicity, cell-based

Structure (SMILES)	EC50 [1] [µM]	CC50 [2] [µM]	inhibition [4]	inhibition [5]	further results
Cc1nnc2ccc(-c3cc(NS(=O)(=O)c4ccc(C(F)(F)F)cc4)ccc3Oc3ccc(F)cc3F)cn12	> 50	> 50	–	–	–
COc1ccc(Br)cc1S(=O)(=O)Nc1ccc(Oc2ccc(F)cc2F)c(-c2ccc3nnc(C)n3c2)c1	> 50	> 50	–	–	–
Cc1nnc2ccc(-c3cc(NS(=O)(=O)c4cccs4)ccc3Oc3ccc(F)cc3F)cn12	6.6	> 50	Active	Active	Activity [3]: Active
CCC(=O)Nc1ccc(Oc2ccc(F)cc2F)c(-c2ccc3nnc(C)n3c2)c1	17.8	> 50	–	–	–
Cc1nnc2ccc(-c3cc(NS(=O)(=O)c4ccc(Cl)cc4)ccc3Oc3ccc(F)cc3F)cn12	17.7	> 50	Active	Active	–
COC(=O)CCCCCCC(=O)Nc1ccc(Oc2ccc(F)cc2F)c(-c2ccc3nnc(C)n3c2)c1	> 50	> 50	–	–	–
Cc1nnc2ccc(-c3cc(NS(=O)(=O)c4cccs4)ccc3Oc3ccc(Cl)cc3F)cn12	–	–	Active	Active	Activity [3]: Active
Cc1nnc2ccc(-c3cc(NS(=O)(=O)c4ccc([N+](=O)[O-])cc4)ccc3Oc3ccc(F)cc3F)cn12	> 50	> 50	–	–	–
Cc1nnc2ccc(-c3cc(NC(=O)C4CC4)ccc3Oc3ccc(F)cc3F)cn12	> 50	> 50	–	–	–
Cc1nnc2ccc(-c3cc(NS(=O)(=O)c4cccc(Br)c4)ccc3Oc3ccc(F)cc3F)cn12	17.2	> 50	Active	Active	–
Cc1nnc2ccc(-c3cc(NS(=O)(=O)C4CC4)ccc3Oc3ccc(F)cc3F)cn12	4.3	> 50	Active	Active	Activity [3]: Active
CCS(=O)(=O)Nc1ccc(Oc2ccc(Cl)cc2Cl)c(-c2ccc3nnc(C)n3c2)c1	–	–	–	–	Activity [3]: Active
Cc1nnc2ccc(-c3cc(NC(=O)CCCCCCC(=O)NO)ccc3Oc3ccc(Cl)cc3F)cn12	13.4	28.7	–	–	–
Cc1nnc(C(=O)NC(C)(C)c2nc(C(=O)NCc3ccc(F)cc3)c(O)c(=O)n2C)o1	–	–	–	–	Activity [6]: Active
O=C1Nc2ccc(Cl)cc2[C@@](C#CC2CC2)(C(F)(F)F)O1	–	–	–	–	Activity [7]: Active
Cc1ccc(S(=O)(=O)Nc2ccc(Oc3ccc(F)cc3F)c(-c3ccc4nnc(C)n4c3)c2)cc1	> 50	> 50	–	–	–
COC(=O)CCCCCCC(=O)Nc1ccc(Oc2ccc(Cl)cc2F)c(-c2ccc3nnc(C)n3c2)c1	> 50	> 50	–	–	–
Cc1nnc2ccc(-c3cc(NS(=O)(=O)c4ccc(Br)cc4)ccc3Oc3ccc(F)cc3F)cn12	> 50	43.9	–	–	–
Cc1nnc2ccc(-c3cc(NC(=O)C(C)(C)C)ccc3Oc3ccc(Cl)cc3F)cn12	> 50	32.9	–	–	–
C=CS(=O)(=O)Nc1ccc(Oc2ccc(Cl)cc2F)c(-c2ccc3nnc(C)n3c2)c1	2	44.2	Active	Active	–
CCS(=O)(=O)Nc1ccc(Oc2ccc(F)cc2F)c(-c2cn(C)c(=O)c3[nH]ccc23)c1	–	–	Active	Active	Activity [3]: Active
CCCS(=O)(=O)Nc1ccc(Oc2ccc(F)cc2F)c(-c2ccc3nnc(C)n3c2)c1	5.4	44.7	Active	Active	–
COc1ccc(S(=O)(=O)Nc2ccc(Oc3ccc(F)cc3F)c(-c3ccc4nnc(C)n4c3)c2)cc1	6.8	> 50	Active	Active	–
CC(C)CN(C[C@@H](O)[C@H](Cc1ccccc1)NC(=O)O[C@H]1CO[C@H]2OCC[C@H]21)S(=O)(=O)c1ccc(N)cc1	–	–	–	–	Activity [8]: Active
Cc1nnc2ccc(-c3cc(NC(=O)CCCCCCC(=O)NO)ccc3Oc3ccc(F)cc3F)cn12	> 50	> 50	–	–	–
Cn1cc(-c2cc(NS(=O)(=O)c3ccc(F)cc3)ccc2Oc2ccc(Cl)cc2F)c2cc[nH]c2c1=O	–	–	Active	Active	–
CCS(=O)(=O)Nc1ccc(Oc2ccc(Cl)cc2F)c(-c2ccc3nnc(C)n3c2)c1	5.6	12.3	Active	Active	Activity [3]: Active
Cc1nnc2ccc(-c3cc(NS(=O)(=O)c4ccccc4)ccc3Oc3ccc(F)cc3F)cn12	> 50	> 50	Active	Active	–
Cc1csc2c1C(c1ccc(Cl)cc1)=N[C@@H](CC(=O)OC(C)(C)C)c1nncn1-2 (racemic)	–	–	Active	Active	inhibition [9]: Active; inhibition [10]: Active; inhibition [11]: Active; Activity [3]: Active; Activity [12]: Non-Toxic; Activity [13]: Non-Toxic; Activity [14]: Non-Toxic
